Results reported in ChEMBL document CHEMBL3301472, “MMV Malaria Box HIV and cytotoxicity screening”.

Experiments:
[1] = tested on: Human immunodeficiency virus 1; assay: MMV: HIV CXCR4-tropic env HxB2 pseudovirus assay produces luciferase signal in lieu of replicating viral particles Day 3 pi, U87-CD4-CXCR4, % inhibition at 5 mM compound; assay type: functional; design: dose or concentration left out as unconfirmed; conditions: Human immunodeficiency virus 1, HxB2, U87.CD4.CXCR4, 72 h
[2] = MMV: MTT Cytotoxicity Assay Day 3 pi, U87-CD4-CCR5 cells, % cell death @ 5mM compound; assay type: toxicity, cell-based; conditions: human, u87-cd4-ccr5, 5000 µM
[3] = MMV: MTT Cytotoxicity Assay Day 3 pi, U87-CD4-CXCR4 cells, % cell death @ 5mM compound; assay type: toxicity, cell-based; conditions: human, u87-cd4-cxcr4, 5000 µM
[4] = MMV: MTT Cytotoxicity Assay Day 7 pi of Assay #6 (compound washed out Day 1 pi), U87-CD4-CCR5 cells, % cell death @ 5mM compound; assay type: toxicity, cell-based; conditions: human, u87-cd4-ccr5, 5000 µM
[5] = MMV: MTT Cytotoxicity Assay Day 7 pi of Assay #7 (compound washed out Day 1 pi), U87-CD4-CXCR4 cells, % cell death @ 5mM compound; assay type: toxicity, cell-based; conditions: human, u87-cd4-cxcr4, 5000 µM
[6] = MMV: MTT Cytotoxicity Assay Day 7 pi of Assay #10 (NO washout), U87-CD4-CCR5 cells, % cell death @ 5mM compound; assay type: toxicity, cell-based; conditions: human, u87-cd4-ccr5, 5000 µM
[7] = MMV: MTT Cytotoxicity Assay Day 7 pi of Assay #11 (NO washout), U87-CD4-CXCR4 cells, % cell death @ 5mM compound; assay type: toxicity, cell-based; conditions: human, u87-cd4-cxcr4, 5000 µM
[8] = tested on: Human immunodeficiency virus 1; assay: MMV: HIV CXCR4-tropic env NL4-3 pseudovirus assay produces luciferase signal in lieu of replicating viral particles Day 3 pi, U87-CD4-CXCR4, % inhibition at 5 mM compound; assay type: functional; design: dose or concentration left out as unconfirmed; conditions: Human immunodeficiency virus 1, NL4-3, U87.CD4.CXCR4, 72 h
[9] = tested on: Human immunodeficiency virus 1; assay: MMV: HIV JRFL CCR5-tropic replication-competent virus, virus & compound washed out Day 1 pi, P24 ELISA Day 7 pi, U87-CD4-CCR5, % inhibition at 5 mM compound; assay type: functional; design: dose or concentration left out as unconfirmed; conditions: Human immunodeficiency virus 1, JR-FL

SMILES | inhibition [1] [%] | % Cell Death [2] | % Cell Death [3] | % Cell Death [4] | % Cell Death [5] | % Cell Death [6] | % Cell Death [7] | inhibition [8] [%] | inhibition [9] [%]
COc1ccc(-c2cc3c(SCC(=O)Nc4cc(C(F)(F)F)ccc4Cl)nccn3n2)cc1 | 6 | 24 | 41 | 5 | -22 | 18 | 13 |  | 
Cc1cc(NC(=O)C2c3ccccc3C(=O)N(CC(C)C)C2c2cccs2)no1 (stereo unspecified) |  | 23 | 26 | 55 | -20 | 36 | -16 | 8 | 7
CCc1ccc(Nc2cc(C)nc3nc(C)nn23)cc1 | 6 | 23 | 46 | 4 | 4 | 50 | 93 |  | 
Oc1c(CN2CCN(c3ccccc3F)CC2)cc(Br)c2cccnc12 | 1 | 43 | 51 | 53 | 51 | 92 | 34 |  | 
Cc1ccc(C)c(Cn2c(N3CCC(C(=O)NCc4cccs4)CC3)nc3ccccc32)c1 | 7 | 108 | 38 | 57 | 2 | 98 | 47 |  | 
CCCCCCn1c(=N)n(CC(O)COc2cccc(C)c2)c2ccccc21.Cl (stereo unspecified) | 2 | 43 | 17 | 33 | -16 | 71 | 50 |  | 
CCC(c1ccccc1)c1nn2c(-c3cccs3)nnc2s1 (stereo unspecified) |  | 3 | 41 | 18 | 28 | 41 | 73 | 9 | 0
CCC(C)NCC(O)(c1ccc(Cl)cc1)c1ccc(Cl)cc1 (stereo unspecified) |  | -1 | 23 | -11 | -33 | 31 | 3 | 2 | -2
O=C(Nc1ccsc1C(=O)NC1CCCCC1)c1ccc(F)cc1 |  | -22 | 8 | -4 | -43 | -2 | -14 | 3 | -2
COc1ccc2c(=O)cc(C(Cl)(Cl)Cl)oc2c1 | 8 | 90 | 41 | 23 | 23 | 100 | 95 |  | 
COc1ccc(C=C2SC(Nc3ccc(F)cc3)=NC2=O)c(OC)c1 | 4 | 25 | 28 | -49 | 0 | 96 | 65 |  | 
CC1CC(C)CN(C(=O)c2ccc(Cl)cc2Cl)C1 (stereo unspecified) |  | -5 | 31 | -14 | -16 | -31 | -51 | -1 | 5
CCOC(=O)c1c[nH]c2c(CC)cccc2c1=O |  | 39 | 76 | 36 | 14 | -1 | 35 | 7 | 8
COc1ccc(C(=O)C2CC2c2ccc(Cl)cc2)cc1 (stereo unspecified) |  | 40 | 29 | 6 | 66 | 32 | 35 | -2 | 3
COc1ccc(Nc2nc(N/N=C/c3ccc(O)cc3)nc(Nc3ccc([N+](=O)[O-])cc3)n2)cc1 |  | 11 | 23 | 33 | 50 | 11 | 0 | 7 | 
CCOc1cc2c(cc1OCC)C(c1cc(C)c(O)c(C)c1)NCC2.Cl (stereo unspecified) |  | 4 | 16 | 18 | -10 | -3 | -11 | 5 | 
CCN(CC)CCCNc1ccnc2cc3ccccc3cc12 |  | 41 | 35 | 51 | 55 | 60 | 85 | 5 | 
Cc1ccc2cc3c(N)c4c(C)ccc(C)c4nc3nc2c1 |  | -9 | -14 | 46 | -5 | 18 | 31 | 5 | 
COc1ccccc1NC1=C(N2CCCCC2)C(=O)c2ccccc2C1=O |  | 34 | 15 | 22 | 8 | 19 | -50 | 5 | 1
CCCCc1c(CCC)c(=N)c2ccccc2n1C.I |  | -13 | 21 | 27 | 55 | -4 | -12 | 7 | 
Br.CCn1c2c(c(=N)c3c1CCC3)CCCC2 |  | -56 | 30 | -8 | -30 | -14 | -11 | -2 | 
Cl.Oc1ccccc1CNCC12CC3CC(CC(C3)C1)C2 |  | -8 | 15 | 20 | -11 | 37 | -2 | 3 | 
Cc1ccc(NC(=O)Nc2cccc(Cl)c2)cc1F |  | -7 | 26 | 12 | -22 | 8 | -5 | 0 | 
FC(F)(F)c1cccc(Nc2nc(-c3ccccc3)nc3ncccc23)c1 |  | 1 | -16 | 0 | 15 | 19 | -17 | 9 | 
